Molecular target: T1, CRTH2 (Homo sapiens, UniProt Q9Y5Y4)
T1 sequence (Q9Y5Y4 1-395): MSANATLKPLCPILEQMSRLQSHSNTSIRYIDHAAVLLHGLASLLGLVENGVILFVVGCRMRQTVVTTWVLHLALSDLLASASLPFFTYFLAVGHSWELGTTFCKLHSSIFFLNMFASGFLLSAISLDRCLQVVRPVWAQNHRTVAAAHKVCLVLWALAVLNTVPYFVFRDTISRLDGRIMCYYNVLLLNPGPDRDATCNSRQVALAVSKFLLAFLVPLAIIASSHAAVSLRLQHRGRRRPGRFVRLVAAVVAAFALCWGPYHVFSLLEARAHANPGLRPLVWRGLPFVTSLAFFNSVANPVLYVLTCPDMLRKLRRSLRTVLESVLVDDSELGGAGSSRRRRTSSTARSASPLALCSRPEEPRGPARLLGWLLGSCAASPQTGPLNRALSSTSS
Experiment: Determination of Ki (radioligand binding assay, equilibrium competition against [3H]PGD2)
Parameters: expressed in transfected cells; host or cells: HEK293 (EBNA) cells, membrane preparation
Settings: average of at least three independent dose response experiments
Experimental: The inhibitory activity can be investigated by a radioligand binding assay (Sawyer et al., Br. J. Pharmocol 2002, 137, 1163-72). The radioligand binding assay was performed at room temperature in binding buffer (10 mM HEPES/KOH pH […], with protease inhibitor cocktail tablets), containing 1.5 nM [^3H]PGD2 (Amersham, 156 Cie/mmol), and 10 μg of hCRTH2 HEK293 (EBNA) cell membrane protein in a final volume of 100 μl in 96 well plates (Corning, USA). Non-specific binding was determined in the presence of 1 μM PGD2 (Cayman, USA). Competing spiro-indolinones were diluted in dimethylsulphoxide so that the total volume of dimethylsulfoxide was kept constant at 1% dimethylsulphoxide (Me2SO) Serial dilutions of 100 μM and […] were prepared. 10 μl each of these spiro-indolinone stock solutions were added. Incubation (60 min at room temperature) was terminated by rapid filtration through 96 wells hydrophobic GF/C Unifilter plates (Whatman, USA). Filters were washed twice with 250 μl of Tris-HCl pH 7.4, 10 mM MnCl2, and residual radioligand bound to the filters was mixed to 100 μl of liquid scintillation cocktail (Optiphase Supermix, Perkin Elmer, USA) and binding activity was determined by counting residual radioligand using a 1450 Micro-beta scintillation counter (Wallac, UK). The following representative compounds were tested. All inhibited the binding of PGD2 to CRTH2 by more than 70%. • (1′-benzyl-5-chloro-2,2′,5′-trioxospiro[indole-3,3′-pyrrolidin]-1(2H)-yl)acetic acid • (1′-benzyl-5-fluoro-2,2′,5′-trioxospiro[indole-3,3′-pyrrolidin]-1(2H)-yl)acetic acid • 4-(1′-allyl-5-chloro-2,2′,5′-trioxospiro[indole-3,3′-pyrrolidin]-1(2H)-yl)butanoic acid • [5-chloro-1′-(2-methoxyethyl)-2,2′,5′-trioxospiro[indole-3,3′-pyrrolidin]-1(2H)-yl]acetic acid • 4-(1′-benzyl-5-chloro-2,2′,5′-trioxospiro[indole-3,3′-pyrrolidin]-1(2H)-yl)butanoic acid • (1′-benzyl-5-methoxy-2,2′,5′-trioxospiro[indole-3,3′-pyrrolidin]-1(2H)-yl)acetic acid • [5-fluoro-1′-[(2-methoxyethoxy)methyl]-2,2′,5′-trioxospiro[indole-3,3′-pyrrolidin]-1(2H)-yl]acetic acid • 4-(1′-allyl-5-fluoro-2,2′,5′-trioxospiro[indole-3,3′-pyrrolidin]-1(2H)-yl)butanoic acid • 4-(1′-benzyl-5-fluoro-2,2′,5′-trioxospiro[indole-3,3′-pyrrolidin]-1(2H)-yl)butanoic acid
Ki values were determined by equilibrium competition binding experiments against [^3H]PGD2. Ki values were calculated from the formula below and represent the average of at least three independent dose response experiments. The Ki values give the ligand concentrations necessary to inhibit 50% of the binding of [^3H]PGD2 to CRTH2. Ki=IC50/(1+[Concentration of Ligand]/Kd)]
All experiments were performed in 96 well plates, in a final volume of 100 μl according to the above described filtration assay. The concentration of membranes and 3 [H]PGD2, as well as the positive and negative controls were identical to the conditions described above.

Point of comparison: O=C(O)CN1C(=O)C2(CC(=O)N(CCc3ccccc3)C2=O)c2cc(Cl)ccc21 (stereo not shown) [Compound 23, [5-chloro-2,2′,5′-trioxo-1′-(2-phenylethyl)spiro[indole-3,3′-pyrrolidin]-1(2H)-yl]acetic acid], Ki 267 nM. Against it:
- O=C(O)CN1C(=O)C2(CC(=O)N(Cc3ccc(Cl)c(Cl)c3)C2=O)c2cc(Cl)ccc21 (stereo not shown) [Compound 6, [5-chloro-1′-(3,4-dichlorobenzyl)-2,2′,5′-trioxospiro[indole-3,3′-pyrrolidin]-1(2H)-yl]acetic acid] — 2.7-fold lower, 100 nM
- Cn1ccnc1CN1C(=O)CC2(C1=O)C(=O)N(CC(=O)O)c1ccc(Cl)cc12 (stereo not shown) [Compound 32, [5-chloro-1′-[(1-methyl-1H-imidazol-2-yl)methyl]-2,2′,5′-trioxospiro[indole-3,3′-pyrrolidin]-1(2H)-yl]acetic acid] — 6.8-fold higher, 1820 nM
- COc1c(C)cnc(CN2C(=O)CC3(C2=O)C(=O)N(CC(=O)O)c2ccc(Cl)cc23)c1C (stereo not shown) [Compound 75, [5-chloro-1′-[(4-methoxy-3,5-dimethylpyridin-2-yl)methyl]-2,2′,5′-trioxospiro[indole-3,3′-pyrrolidin]-1(2H)-yl]acetic acid] — 1.9-fold higher, 510 nM
- O=C(O)CN1C(=O)C2(CC(=O)N(Cc3cn4ccccc4n3)C2=O)c2cc(Cl)ccc21 (stereo not shown) [Compound 24, [5-chloro-1′-(imidazo[1,2-a]pyridin-2-ylmethyl)-2,2′,5′-trioxospiro[indole-3,3′-pyrrolidin]-1(2H)-yl]acetic acid] — 2.6-fold higher, 705 nM
- O=C(O)CN1C(=O)C2(CC(=O)N(Cc3cnc(Cl)cc3Cl)C2=O)c2cc(Cl)ccc21 (stereo not shown) [Compound 76, [5-chloro-1′-[(4,6-dichloropyridin-3-yl)methyl]-2,2′,5′-trioxospiro[indole-3,3′-pyrrolidin]-1(2H)-yl]acetic acid] — 22-fold lower, 12 nM
- O=C(O)CN1C(=O)C2(CC(=O)N(Cc3cccc(Oc4ccccc4)c3)C2=O)c2cc(Cl)ccc21 (stereo not shown) [Compound 10, [5-chloro-2,2′,5′-trioxo-1′-(3-phenoxybenzyl)spiro[indole-3,3′-pyrrolidin]-1(2H)-yl]acetic acid] — 1.8-fold lower, 148 nM
- O=C(O)CN1C(=O)C2(CC(=O)N(Cc3ccc4ccccc4n3)C2=O)c2cc(Cl)ccc21 (stereo not shown) [Compound 3, [5-chloro-2,2′,5′-trioxo-1′-(quinolin-2-ylmethyl)spiro[indole-3,3′-pyrrolidin]-1(2H)-yl]acetic acid] — 2.9-fold lower, 93 nM
- O=C(O)CN1C(=O)[C@]2(CC(=O)N(Cc3ccccc3F)C2=O)c2cc(Cl)ccc21 [Compound 110, (3S)-[5-chloro-1′-(2-fluorobenzyl)-2,2′,5′-trioxospiro[indole-3,3′-pyrrolidin]-1(2H)-yl]acetic acid] — 32-fold lower, 8.4 nM
- N#Cc1ccc(CN2C(=O)CC3(C2=O)C(=O)N(CC(=O)O)c2ccc(Cl)cc23)cc1 (stereo not shown) [Compound 4, [5-chloro-1′-(4-cyanobenzyl)-2,2′,5′-trioxospiro[indole-3,3′-pyrrolidin]-1(2H)-yl]acetic acid] — 3-fold lower, 89 nM
- Cc1onc(-c2ccccc2)c1CN1C(=O)NC2(C1=O)C(=O)N(CC(=O)O)c1ccc(Cl)cc12 (stereo not shown) [Compound 106, [5′-chloro-1-[(5-methyl-3-phenylisoxazol-4-yl)methyl]-2,2′,5-trioxospiro[imidazolidine-4,3′-indol]-1′(2′H)-yl]acetic acid] — 4.2-fold higher, 1120 nM
- O=C(O)CN1C(=O)C2(CC(=O)N(Cc3ccccn3)C2=O)c2cc(Cl)ccc21 (stereo not shown) [Compound 17, [5-chloro-2,2′,5′-trioxo-1′-(pyridin-2-ylmethyl)spiro[indole-3,3′-pyrrolidin]-1(2H)-yl]acetic acid] — 1.6-fold lower, 170 nM
- O=C(O)CN1C(=O)C2(CC(=O)N(Cc3cccs3)C2=O)c2cc(Cl)ccc21 (stereo not shown) [Compound 77, [5-chloro-2,2′,5′-trioxo-1′-(2-thienylmethyl)spiro[indole-3,3′-pyrrolidin]-1(2H)-yl]acetic acid] — 3.6-fold lower, 75 nM
- O=C(O)CN1C(=O)C2(CC(=O)N(Cc3cccc(Cl)c3)C2=O)c2cc(Cl)ccc21 (stereo not shown) [Compound 5, [5-chloro-1′-(3-chlorobenzyl)-2,2′,5′-trioxospiro[indole-3,3′-pyrrolidin]-1(2H)-yl]acetic acid] — 3.7-fold lower, 73 nM
- O=C(O)CN1C(=O)C2(CC(=O)N(Cc3ccccc3F)C2=O)c2cc(Cl)ccc21 (stereo not shown) [Compound 104, [5-chloro-1′-(2-fluorobenzyl)-2,2′,5′-trioxospiro[indole-3,3′-pyrrolidin]-1(2H)-yl]acetic acid] — 11-fold lower, 24 nM
- O=C(O)CN1C(=O)C2(CC(=O)N(CCOCc3ccccc3)C2=O)c2cc(Cl)ccc21 (stereo not shown) [Compound 29, [1′-[2-(benzyloxy)ethyl]-5-chloro-2,2′,5′-trioxospiro[indole-3,3′-pyrrolidin]-1(2H)-yl]acetic acid] — 4.2-fold higher, 1130 nM
- O=C(O)CN1C(=O)C2(CC(=O)N(Cc3ccc(C(F)(F)F)o3)C2=O)c2cc(Cl)ccc21 (stereo not shown) [Compound 18, [5-chloro-2,2′,5′-trioxo-1′-{[5-(trifluoromethyl)-2-furyl]methyl}spiro[indole-3,3′-pyrrolidin]-1(2H)-yl]acetic acid] — within 1.5-fold, 270 nM
- COc1ccccc1CN1C(=O)CC2(C1=O)C(=O)N(CC(=O)O)c1ccc(Cl)cc12 (stereo not shown) [Compound 54, [5-chloro-1′-(2-methoxybenzyl)-2,2′,5′-trioxospiro[indole-3,3′-pyrrolidin]-1(2H)-yl]acetic acid] — 1.7-fold lower, 153 nM
- O=C(O)CN1C(=O)C2(NC(=O)N(Cc3ccccc3F)C2=O)c2cc(Cl)ccc21 (stereo not shown) [Compound 108, [5′-chloro-1-(2-fluorobenzyl)-2,2′,5-trioxospiro[imidazolidine-4,3′-indol]-1′(2′H)-yl]acetic acid] — 56-fold lower, 4.8 nM
- O=C(O)CN1C(=O)C2(CC(=O)N(Cc3csc(-c4cccc(Cl)c4)n3)C2=O)c2cc(Cl)ccc21 (stereo not shown) [Compound 103, [5-chloro-1′-{[2-(3-chlorophenyl)-1,3-thiazol-4-yl]methyl}-2,2′,5′-trioxospiro[indole-3,3′-pyrrolidin]-1(2H)-yl]acetic acid] — 44-fold lower, 6 nM
- O=C(O)CN1C(=O)C2(NC(=O)N(Cc3ccccc3)C2=O)c2cc(Cl)ccc21 (stereo not shown) [Compound 107, (1-benzyl-5′-chloro-2,2′,5-trioxospiro[imidazolidine-4,3′-indol]-1′(2′H)-yl)acetic acid] — within 1.5-fold, 300 nM
- O=C(O)CN1C(=O)C2(CC(=O)N(CC3COc4ccccc4O3)C2=O)c2cc(Cl)ccc21 (stereo not shown) [Compound 16, [5-chloro-1′-(2,3-dihydro-1,4-benzodioxin-2-ylmethyl)-2,2′,5′-trioxospiro[indole-3,3′-pyrrolidin]-1(2H)-yl]acetic acid] — within 1.5-fold, 213 nM
- CCOCCN1C(=O)CC2(C1=O)C(=O)N(CC(=O)O)c1ccc(Cl)cc12 (stereo not shown) [Compound 28, [5-chloro-1′-(2-ethoxyethyl)-2,2′,5′-trioxospiro[indole-3,3′-pyrrolidin]-1(2H)-yl]acetic acid] — 3.9-fold higher, 1030 nM
- O=C(O)CN1C(=O)C2(CC(=O)N(C/C=C/c3ccccc3)C2=O)c2cc(Cl)ccc21 (stereo not shown) [Compound 25, [5-chloro-2,2′,5′-trioxo-1′-[(2E)-3-phenylprop-2-en-1-yl]spiro[indole-3,3′-pyrrolidin]-1(2H)-yl]acetic acid] — 2.9-fold higher, 768 nM
- O=C(O)CCCN1C(=O)C2(CC(=O)N(Cc3ccc(C(F)(F)F)cc3)C2=O)c2cc(Cl)ccc21 (stereo not shown) [Compound 35, 4-[5-chloro-2,2′,5′-trioxo-1′-[4-(trifluoromethyl)benzyl]spiro[indole-3,3′-pyrrolidin]-1(2H)-yl]butanoic acid] — 2.6-fold higher, 681 nM

From US8236963B2, “Tricyclic spiro derivatives as CRTH2 modulators” (Merck Serono SA, priority 2005, dated 2012)
